Measured values: patent US20150320773A1, “TREATMENT OF INFLAMMATION” (Vascular Biogenics Ltd., priority 2011, published 2015)

What was measured:
[1] = system: THP-1 cells; assay: Trans-well chemotaxis assay of THP-1 cells; format: cell-based, human; details: Wortmannin 1 μmol/L, Rapamycin 1.1 μmol/L, GW5074 1 μmol/L
Experimental: For chemo-attraction of monocytes, RANTES (100 ng/ml), MIP-1α (50 ng/ml) or MCP-1 (50 ng/ml) were dissolved in 0.5% fetal bovine serum(FBS)/RPMI-1640 medium and placed at the lower chamber of QCM™ 24-well migration assay plate (Corning-Costar; 5 μm pores). For chemo-attraction of CD4+ cells, 0.5% FBS/RPMI-1640 solution containing RANTES (100 ng/ml) and SDF-1α (50 ng/ml) was used, using the same plate setting. Migration assay was conducted by seeding 300,000 treated cells in the upper chamber, followed by incubation of 3-4 hours. Subsequently, the number of cells which migrated to the medium in the lower compartment was determined by FACS.
Data are mean f SD from 4 experiments in triplicates, normalized to untreated cells. **, p<0.001.

[2] = system: Human monocytes (CD14+ cells); assay: In vitro cell migration (trans-well chemotaxis) assay of human monocytes; format: cell-based; details: for reduction of monocyte chemotaxis towards MCP-1 and RANTES (50 ng/ml each): 30 min pre-incubation, PC 5 μg/ml, partially oxidized PAPC 40 μg/ml, PGPC 5 μg/ml, VB-201 5 μg/ml
Experimental: Following incubation, cells were loaded to the upper chamber and allowed to migrate for 3.5 hours towards 0.5% fetal bovine serum/RPMI-1640 medium supplemented with recombinant human MCP-1 and RANTES (50 ng/ml each).
In order to further ascertain the significance of ERK1/2 phosphorylation and MEK1/2 phosphorylation to monocyte chemotaxis, the effect of the RAF inhibitor GW5074, which reduces MEK and ERK phosphorylation, on monocyte chemotaxis was determined in a trans-well migration assay using a combination of MCP-1 ([…]) and RANTES (70 ng/ml) as attractant. Monocytes were pre-treated with 5 μM GW5074 for 30 minutes prior to seeding in the migration chamber.
For this purpose, monocytes from healthy donors were pre-incubated for 30 min with either solvent (0.005% ethanol/PBS), phosphatidylcholine (PC; 5 μg/ml), partially oxidized PAPC (24 h oxidation; 40 μg/ml) or PGPC (5 μg/ml), and allowed to migrate towards recombinant human MCP-1 (CCL2; ligand for CCR2) and RANTES (CCL5; ligand for CCR1, CCR3, CCR5, US28) as attractants (50 ng/ml each). […]

[3] = system: human monocytes; assay: ROS formation in human monocytes (DCF, FACS); format: cell-based; details: overnight; VB-201 10 μg/ml, PGPC 10 μg/ml, OxPAPC 100 μg/ml; relative to PBS
Experimental: Detection of ROS was performed through FACS quantification of the oxidation product dichlorodihydrofluorescein (DCF). Data are mean±SD from 3-4 experiments performed in duplicates. FIG. 23B is a histogram from a representative experiment showing DCF levels in treated cells.

[4] = molecular target: T1, TLR4 (Mus musculus, UniProt Q9QUK6); details: RAW 264.7 murine macrophages
T1 sequence (Q9QUK6 26-835): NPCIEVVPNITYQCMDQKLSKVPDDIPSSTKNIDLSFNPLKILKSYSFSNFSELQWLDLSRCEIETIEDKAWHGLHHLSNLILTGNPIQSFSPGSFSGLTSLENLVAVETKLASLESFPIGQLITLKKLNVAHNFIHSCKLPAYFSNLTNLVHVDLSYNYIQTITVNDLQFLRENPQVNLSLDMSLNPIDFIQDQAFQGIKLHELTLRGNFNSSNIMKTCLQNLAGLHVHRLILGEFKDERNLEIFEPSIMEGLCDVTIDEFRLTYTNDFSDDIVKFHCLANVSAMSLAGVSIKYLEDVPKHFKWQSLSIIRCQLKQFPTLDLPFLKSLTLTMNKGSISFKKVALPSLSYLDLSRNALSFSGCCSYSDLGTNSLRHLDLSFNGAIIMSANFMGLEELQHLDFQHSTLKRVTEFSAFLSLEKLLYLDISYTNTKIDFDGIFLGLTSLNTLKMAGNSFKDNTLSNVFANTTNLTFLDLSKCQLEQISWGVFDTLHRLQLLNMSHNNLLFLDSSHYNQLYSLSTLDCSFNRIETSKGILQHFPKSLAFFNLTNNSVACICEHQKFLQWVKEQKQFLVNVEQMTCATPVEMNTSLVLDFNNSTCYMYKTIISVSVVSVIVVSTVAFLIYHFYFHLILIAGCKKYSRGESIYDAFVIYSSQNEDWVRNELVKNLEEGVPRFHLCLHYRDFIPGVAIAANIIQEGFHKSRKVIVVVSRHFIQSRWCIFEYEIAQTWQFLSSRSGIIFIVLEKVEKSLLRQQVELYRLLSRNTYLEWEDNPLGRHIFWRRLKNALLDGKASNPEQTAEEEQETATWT
T1 sequence (Q9JHF9 19-160 partner): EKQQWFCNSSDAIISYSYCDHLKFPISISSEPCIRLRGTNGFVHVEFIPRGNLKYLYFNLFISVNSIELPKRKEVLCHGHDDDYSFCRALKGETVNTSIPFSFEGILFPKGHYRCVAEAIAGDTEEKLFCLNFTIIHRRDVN
Experimental: Cells were washed and re-suspended in lysis buffer containing 1:100 dithiothreitol (DTT) (Bio-Lab), and phosphatase and protease inhibitors (Thermo Scientific). Samples were loaded on a precasted Criterion TGX gel (BIO-RAD, UK) and transferred onto nitrocellulose membrane. Blots were blocked with 5% milk or bovine serum albumin (BSA) in TBST (Tris buffer saline with TWEEN 20) for 1 hour, followed by incubation with primary and secondary antibodies. Membranes were developed using the ECL kit (Thermo Scientific).
Toll-like receptors were activated in mouse BMDCs (bone marrow dendritic cells) by specific agonists, and the effect of receptor activation was determined via Western blot for phosphorylation of p38 MAP kinase, which is downstream of TLRs.

Compound: O=C1Nc2ccc(I)cc2C1=Cc1cc(Br)c(O)c(Br)c1 [GW5074, 3-(3,5-dibromo-4-hydroxy-benzylidene)-5-iodo-1,3-dihydro-indol-2-one, reference compound]
- chemotaxis of THP-1 cells in vitro [1]: decrease chemotaxis of THP-1 cells
- reduction of monocyte migration ([2]; 5 μM GW5074, 30 minutes, MCP-1 (50 ng/nl) and RANTES (70 ng/ml)): about 80%

Compound: CCCCCCCCCCCCCCCC(=O)OCC(COP(=O)([O-])OCC[N+](C)(C)C)OC(=O)CCCC(=O)O (stereo not drawn) [PGPC, 1-palmitoyl-2-glutaryl-phosphatidylcholine, reference compound]
- reduction of monocyte chemotaxis towards MCP-1 and RANTES (50 ng/ml each) [2]: ~50%
- ROS formation in human monocytes [3]: no effect on ROS formation

Compound: CCCCCCCCOC[C@H](COP(=O)([O-])OCC[N+](C)(C)C)OCCCCC(=O)O [VB-207, (R)-1-octyl-2-(4′-carboxyl)butyl-sn-glycero-3-phosphocholine]
- LPS-induced signaling [4]: neither VB-207 nor OB-VB207 exhibited such an inhibitory effect

Compound: phosphatidylcholine [PC, reference compound]
- reduction of monocyte chemotaxis towards MCP-1 and RANTES (50 ng/ml each) [2]: did not reduce the number of migrating cells
